Assay results taken from patent US20220348870A1, “MATERIALS AND METHODS FOR MODIFYING THE ACTIVITY OF T CELLS” (Regents of the University of Minnesota, priority 2016, published 2022).

How the values were obtained:
miR-146b-5p = miR-146b-5p knockdown in expanded tTreg by qRT-PCR; format: cell-based, human
Protocol: (§1) tTreg and CD4+ T-cell cultures, generated as described herein, were frozen on days 14 and 7, respectively. Frozen cells were thawed and re-stimulated with anti-CD3/CD28 mAb-coated Dynabeads (Life Technologies, Carlsbad, Calif.) at 1:3 (cell to bead) ratios in the presence of recombinant IL-2. After 6 days, cultures were washed, re-suspended at 1×10^6 cells/ml, and nanoparticle-encapsulated RNA (50 nM; Scramble/Antagomir, Table 4: EXIQON, Woburn, Mass.) or TRAF6 inhibitor (8 μM, Darmstadt, Germany) or NF-kB inhibitor (PS-1145, 3 μM or 6 μM, Millennium Pharmaceuticals, Cambridge, Mass.) were added. DMSO were vehicles and used as controls. Cells were cultured another 2 days without further manipulation, and were harvested and assayed as listed. […]
(§2) RNA was extracted from cell pellets using RNeasy Mini Kit with on-column DNase digestion (Qiagen; Hilden, Germany). cDNA synthesis was performed as described in the Expression Analysis Technical Manual (Affymetrix; Santa Clara, Calif.). GAPDH was used as control gene and related gene expression (Bcl-2, Mcl-1, Bcl-xL, BID and BAX; all from IDT, Coralville, Iowa), was analyzed on an Applied Biosystems 7500 Real-Time PCR System using Taqman Universal PCR Master Mix #4304437 and Assay on Demand primer/probe kits (Applied Biosystems; Waltham, Mass.). […]

human tTreg [1] = experiment: Foxp3 expression in expanded tTreg by flow cytometry; format: cell-based; details: for Foxp3 protein expression at the population level (% Foxp3+CD127−): 50 nM RNA, antagomir vs scrambled P<0.05
Protocol: (§3) tTreg and CD4+ T-cell cultures, generated as described herein, were frozen on days 14 and 7, respectively. Frozen cells were thawed and re-stimulated with anti-CD3/CD28 mAb-coated Dynabeads (Life Technologies, Carlsbad, Calif.) at 1:3 (cell to bead) ratios in the presence of recombinant IL-2. After 6 days, cultures were washed, re-suspended at 1×10^6 cells/ml, and nanoparticle-encapsulated RNA (50 nM; Scramble/Antagomir, Table 4: EXIQON, Woburn, Mass.) or TRAF6 inhibitor (8 μM, Darmstadt, Germany) or NF-kB inhibitor (PS-1145, 3 μM or 6 μM, Millennium Pharmaceuticals, Cambridge, Mass.) were added. DMSO were vehicles and used as controls. Cells were cultured another 2 days without further manipulation, and were harvested and assayed as listed. For some experiments, tTreg were kept in culture longer (as indicated) without further antagomir addition.
(§4) Human-specific antibodies used for flow cytometry included: CD4 (RPA-T4), CD8 (RPA-T8), CD25 (M-A251), CD45RA (HI100), IFN-gamma, IL-17a, annexin V (PE), 7-AAD (FITC) were purchased from BD Pharmingen, while Foxp3 (clone 249D) was obtained from BioLegend and Ki67 from eBioscience. For cytokine analysis, cells were pre-treated by PMA, ionomycin and brefeldin A for 6 hours and then stained by different cytokine antibodies. The annexin V (PE)/7-AAD (FITC) were applied to assess the apoptosis of tTreg. Acquisition was performed using a LSRII (BD Bioscience) and data were analyzed using FlowJo software (TreeStar) or IDEA (Admin). Nuclear localization of NF-kB was quantitated using an imaging flow cytometer (Imagestream, Amnis Corp; Seattle, Wash.) by intracellularly staining tTreg with anti-NF-kB (vendor) and, after washing, incubating with DRAQ5 for 15 minutes at 10 μM final concentration.

human tTreg [2] = experiment: CFSE in vitro suppression assay (anti-CD3-mediated CD8+ T cell proliferation); format: cell-based
Protocol: The in vitro-suppressive capacity of expanded tTregs was assessed with a carboxy fluorescein succinimidyl ester (CFSE) inhibition assay as previously published (Hippen et al., Blood, 2008, 112(7):2847-57). Briefly, PBMNCs were purified, labeled with CFSE (Invitrogen), and stimulated with anti-CD3 mAb-coated beads (Dynal) ±cultured tTreg (1:2 to 1:32 tTregs/PBMNCs). On day 4, cells were stained with antibodies to CD4 and CD8, and suppression was determined from the Division Index (FlowJo, TreeStar). nTregs suppressed CD4 and CD8 T cell responses equivalently and only CD8 data are presented.

human tTreg [3] = experiment: tTreg expansion, viability (annexin V/7-AAD) and Ki-67 staining; format: cell-based
Protocol: as §3, §4

human tTreg [4] = experiment: Intracellular IFN-gamma assay after PMA/ionomycin re-stimulation; format: cell-based; details: final 2 days treatment
Protocol: as §4

control CD4 T-cells = experiment: Foxp3 expression and suppressive function of control CD4 T-cells; format: cell-based, human; details: antagomir for final 2 days
Protocol: as §1, with “controls.” for “controls. Cells were cultured another 2 days without further manipulation, and were harvested and assayed as listed.”
as §4, with “For cytokine analysis, cells were pre-treated by PMA, ionomycin and brefeldin A for 6 hours and then stained by different cytokine antibodies. The annexin V (PE)/7-AAD (FITC) were applied to assess the apoptosis of tTreg.” left out, “concentration. […]” for “concentration.”

TRAF6 = TRAF6 mRNA (RT-PCR) and protein (flow cytometry) expression in tTreg; format: cell-based, human; details: expanded tTregs; for TRAF6 mRNA expression: RT-PCR
Protocol: as §3
as §4, with “For cytokine analysis, cells were pre-treated by PMA, ionomycin and brefeldin A for 6 hours and then stained by different cytokine antibodies. The annexin V (PE)/7-AAD (FITC) were applied to assess the apoptosis of tTreg.” left out
as §2

NF-kB = NF-kB nuclear localization by imaging flow cytometry; format: cell-based, human; details: tTreg, 2 days, vs untreated or scramble-treated
Protocol: as §4
TRAF6 is critical for TCR-mediated activation of NF-kB, and acts by ubiquitinylating TAK1, leading to activation of IKK and destruction of IkB, which allows NF-kB to translocate to the nucleus. To determine whether miR-146 antagomir enhanced NF-kB nuclear translocation, in vitro expanded tTreg were left untreated or treated for 2 days with scrambled RNA or miR-146b-5p antagomir, stained for CD4, NF-kB and DRAQ5 (a nuclear marker) and analyzed using imaging flow cytometry. […]

human tTreg [5] = experiment: qRT-PCR of NF-kB-responsive, anti- and pro-apoptotic genes in tTreg; format: cell-based
Protocol: RNA was extracted from cell pellets using RNeasy Mini Kit with on-column DNase digestion (Qiagen; Hilden, Germany). cDNA synthesis was performed as described in the Expression Analysis Technical Manual (Affymetrix; Santa Clara, Calif.). GAPDH was used as control gene and related gene expression (Bcl-2, Mcl-1, Bcl-xL, BID and BAX; all from IDT, Coralville, Iowa), was analyzed on an Applied Biosystems 7500 Real-Time PCR System using Taqman Universal PCR Master Mix #4304437 and Assay on Demand primer/probe kits (Applied Biosystems; Waltham, Mass.). For TLDA assay, TLDA v2.0 was performed on the 7900HT real-time PCR system (Applied Biosystems) according to the manufacturer's protocol. Average delta CT was acquired from the results for further analysis. PCR cycling conditions were performed as follows: 95° C. for 15 s and 60° C. for 1 min, 40 cycles and then 95° C. for 10 min. To normalize RNA input, Human RNU44 (Table 4) small RNA was used as an internal control.

Q: For “miR-146b-5p antagomir: nanoparticle-encapsulated antagomir RNA (EXIQON), AGCCTATGGAATTCAGTTCTC (SEQ ID NO: 2) (AGCCTATGGAATTCAGTTCTC; nanoparticle-encapsulated Exiqon antagomir, chemistry not given here)”, which miR-146b expression reduced (miR-146b-5p; day 8 after a single antagomir treatment (not shown)) is on record?
A: 70%

Q: And the miR-146b-5p knockdown efficiency (miR-146b-5p; tTreg, nanoparticle-encapsulated antagomir 50 nM, 2 days, qRT-PCR)?
A: > 95%

Q: And the Foxp3 expression (human tTreg [1]; day 8 after single treatment)?
A: maintained their higher Foxp3 expression

Q: What about the “Foxp3 protein expression at the population level (% Foxp3+CD127−)” value (human tTreg [1]; tTreg, final 2 days) of the same molecule?
A: 85.5%±3.5%

Q: What about the “Foxp3 protein expression at per-cell level” value (human tTreg [1]; tTreg, 2 days, compared to scrambled group) of the same molecule?
A: increased Foxp3 protein expression

Q: What about the suppressive function (human tTreg [2]; day 8 after single treatment) of the same molecule?
A: maintained their higher Foxp3 expression and suppressive function

Q: And the “increase in efficacy of tTreg suppressive function” value (human tTreg [2]; tTreg:PBMC 1:8 to 1:32, antagomir-treated at 1:16 as suppressive as scramble-treated at 1:8)?
A: ~2 fold

Q: What about the tTreg viability (human tTreg [3]; 2 days treatment, annexin V/7-AAD) of the same molecule?
A: increased viability

Q: And the “Ki67 MFI level” value (human tTreg [3]; 2 days treatment, n=5)?
A: higher relative Ki67 MFI level

Q: What about the tTreg expansion (human tTreg [3]; day 8 post single treatment, vs untreated or scrambled RNA) of the same molecule?
A: expanded significantly more

Q: And the tTreg expansion (human tTreg [3]; initial 2 day treatment period)?
A: no significant difference in expansion

Q: And the “IFN-gamma expression in expanded tTregs” value (human tTreg [4])?
A: expression was not affected

Q: What about the “FoxP3 expression in control CD4 T-cells” value (control CD4 T-cells) of the same molecule?
A: no effect on FoxP3 expression

Q: What about the “suppressive function of control CD4 T-cells” value (control CD4 T-cells) of the same molecule?
A: no effect on FoxP3 expression or suppressive function

Q: And the “TRAF6 mRNA expression” value (TRAF6)?
A: significantly higher TRAF6 mRNA expression

Q: What about the TRAF6 protein expression (TRAF6; flow cytometry, vs untreated or scramble-treated) of the same molecule?
A: significantly enhanced TRAF6 protein expression

Q: And the “NF-kB/DRAQ5 similarity score (nuclear localization)” value (NF-kB)?
A: significantly higher similarity scores

Q: What about the Bcl-xL expression (human tTreg [5]; anti-apoptotic gene, tTreg) of the same molecule?
A: increased expression

Q: What about the Mcl-1 expression (human tTreg [5]; anti-apoptotic gene, tTreg) of the same molecule?
A: increased expression

Q: What about the c-myc expression increase (human tTreg [5]; over untreated or scramble-treated tTreg) of the same molecule?
A: > 3 fold

Q: And the BAX expression (human tTreg [5]; pro-apoptotic gene, tTreg)?
A: decreased expression

Q: What about the BID expression (human tTreg [5]; pro-apoptotic gene, tTreg) of the same molecule?
A: decreased expression

Q: Which results are given for “Scramble: nanoparticle-encapsulated scrambled control RNA, TAA CAC GTC TAT ACG CCC A (SEQ ID NO: 1) (TAACACGTCTATACGCCCA; nanoparticle-encapsulated, chemistry not given here) [reference compound]”?
A: Foxp3 protein expression at the population level (% Foxp3+CD127−) (human tTreg [1]; tTreg, final 2 days): 73.1%±4.6%; TRAF6 mRNA expression (TRAF6): no effect was observed

Q: For `O=C(Nc1cc(Cl)cc2c1[nH]c1cnccc12)c1cccnc1` [PS1145, reference compound], which Foxp3 expression (human tTreg [1]; tTreg, NF-kB inhibitor 3 μM or 6 μM, final 2 days, vs DMSO) is on record?
A: decreased Foxp3 expression in a dose-dependent manner

Q: And the “in vitro suppressive function” value (human tTreg [2]; tTreg, NF-kB inhibitor, final 2 days)?
A: significantly decreased in vitro suppressive function
